Assay [1] concerns vitamin D-deficient rats. Kind of assay: Intestinal calcium transport (everted gut sac method). It is filed as in vivo, rat. The conditions noted are these: FIG. 5. The protocol:
(§1) Male, weanling Sprague-Dawley rats were placed on Diet 11 (0.47% Ca) diet+AEK oil for one week followed by Diet 11 (0.02% Ca)+AEK oil for 3 weeks. The rats were then switched to a diet containing 0.47% Ca for one week followed by two weeks on a diet containing 0.02% Ca. Dose administration began during the last week on 0.02% calcium diet. Four consecutive ip doses were given approximately 24 hours apart. Twenty-four hours after the last dose, blood was collected from the severed neck and the concentration of serum calcium determined as a measure of bone calcium mobilization. The first 10 cm of the intestine was also collected for intestinal calcium transport analysis using the everted gut sac method.
Intestinal calcium transport was evaluated in the same group of animals using the everted gut sac method (FIG. 5).

Assay [2] has as its system 24-hydroxylase (24Ohase) gene promoter. The assay can be described thus: In vitro transcription assay, luciferase reporter in ROS 17/2.8 (bone) cells. The class given is cell-based. As to conditions: for EC50: ROS 17/2.8 cells, 24-hydroxylase promoter-luciferase, 16 h, FIG. 3, read-out: EC50, transcriptional activity in bone cells. The method, then:
Transcription activity was measured in ROS 17/2.8 (bone) cells that were stably transfected with a 24-hydroxylase (24Ohase) gene promoter upstream of a luciferase reporter gene (Arbour et al., 1998). Cells were given a range of doses. Sixteen hours after dosing the cells were harvested and luciferase activities were measured using a luminometer.
RLU=relative luciferase units.

Assay [3] deals with T1, full-length recombinant rat vitamin D receptor (Rattus norvegicus, UniProt P13053).
T1 construct: Full-length recombinant rat receptor was expressed in E. coli; His tag (C); made in house; host or cells: E. coli BL21 (DE3) Codon Plus RIL
T1 sequence (P13053 1-423): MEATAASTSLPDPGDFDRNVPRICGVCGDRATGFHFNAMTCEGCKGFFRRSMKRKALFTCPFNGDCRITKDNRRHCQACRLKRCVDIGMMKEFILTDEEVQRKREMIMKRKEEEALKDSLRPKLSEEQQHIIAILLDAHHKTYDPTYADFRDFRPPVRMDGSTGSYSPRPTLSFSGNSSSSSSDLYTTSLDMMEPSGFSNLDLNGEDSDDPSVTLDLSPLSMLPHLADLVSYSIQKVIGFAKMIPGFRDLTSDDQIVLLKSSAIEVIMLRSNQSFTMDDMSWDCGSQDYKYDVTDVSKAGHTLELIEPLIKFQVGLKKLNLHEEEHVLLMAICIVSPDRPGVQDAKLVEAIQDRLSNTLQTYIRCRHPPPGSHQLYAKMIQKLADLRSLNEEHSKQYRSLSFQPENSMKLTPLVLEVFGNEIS
Kind of assay: Vitamin D receptor competitive binding with [3H]-1,25(OH)2D3. As to conditions: full-length recombinant rat VDR; FIG. 1; read-out: Ki, competition with [3H]-1,25(OH)2D3 for binding to vitamin D receptor. The protocol:
Full-length recombinant rat receptor was expressed in E. coli BL21 (DE3) Codon Plus RIL cells and purified to homogeneity using two different column chromatography systems. The first system was a nickel affinity resin that utilizes the C-terminal histidine tag on this protein. The protein that was eluted from this resin was further purified using ion exchange chromatography (S-Sepharose Fast Flow). Aliquots of the purified protein were quick frozen in liquid nitrogen and stored at −80° C. until use. For use in binding assays, the protein was diluted in TEDK50 (50 mM Tris, 1.5 mM EDTA, pH7.4, 5 mM DTT, 150 mM KCl) with 0.1% Chaps detergent. The receptor protein and ligand concentration were optimized such that no more than 20% of the added radiolabeled ligand was bound to the receptor.
Radiolabeled and unlabeled ligands were added to 100 mcl of the diluted protein at a final ethanol concentration of ≦10%, mixed and incubated overnight on ice to reach binding equilibrium. The following day, 100 mcl of hydroxylapatite slurry (50%) was added to each tube and mixed at 10-minute intervals for 30 minutes. The hydroxylapaptite was collected by centrifugation and then washed three times with Tris-EDTA buffer (50 mM Tris, 1.5 mM EDTA, pH 7.4) containing 0.5% Titron X-100. […] Total binding was determined from the tubes containing only radiolabeled ligand.

The next assay has as its system HL-60 cells. The assay can be described thus: HL-60 cell differentiation (nitro blue tetrazolium reduction). It is filed as cell-based, human. The conditions noted are these: for EC50: HL-60 cells, 4 days, FIG. 2. The protocol:
The study drugs were dissolved in ethanol and the concentrations determined using UV spectrophotometry. Serial dilutions were prepared so that a range of drug concentrations could be tested without changing the final concentration of ethanol (≦0.2%) present in the cell cultures.
Human promyelocytic leukemia (HL60) cells were grown in RPMI-1640 medium containing 10% fetal bovine serum. The cells were incubated at 37° C. in the presence of 5% CO2.
HL60 cells were plated at 1.2×10^5 cells/ml. Eighteen hours after plating, cells in duplicate were treated with drug. Four days later, the cells were harvested and a nitro blue tetrazolium reduction assay was performed (Collins et al., 1979; J. Exp. Med. 149:969-974). The percentage of differentiated cells was determined by counting a total of 200 cells and recording the number that contained intracellular black-blue formazan deposits. Verification of differentiation to monocytic cells was determined by measuring phagocytic activity (data not shown).

Assay [4] deals with vitamin D-deficient rats. The assay can be described thus: Bone calcium mobilization (serum calcium). The class given is in vivo, rat. As to conditions: rats on low calcium diet (0.02%), FIG. 4. The method, then:
as §1
Calcium mobilization from bone and intestinal calcium absorption in vitamin D-deficient animals. Using vitamin D-deficient rats on a low calcium diet (0.02%), the activities of SOR-1 and 1,25(OH)2D3 in intestine and bone were tested.

Setting [5] is: 780 pmol/day ip for 4 consecutive days.
Setting [6] is: 2,340 pmol/day ip for 4 consecutive days.
[7] abbreviates: fold more active than 1α,25-dihydroxyvitamin D3.

From patent publication US8399439B2, “2-methylene-19,26-dinor-(20S,22E,25R)-vitamin D analogs” (Wisconsin Alumni Research Foundation, priority 2008, dated 2013) come the findings set out here.

Each structure is given as a SMILES string.

As to `C=C1[C@H](O)CC(=C/C=C2\CCC[C@]3(C)[C@@H]([C@@H](C)/C=C/C[C@@H](C)O)CC[C@@H]23)C[C@H]1O` [SOR-1, 2-methylene-19,26-dinor-(20S,22E,25R)-1α,25-dihydroxyvitamin D3], the “intestinal calcium transport activity” value in the assay with vitamin D-deficient rats [1] (setting [5]) is on record as “almost no activity as compared to 1,25(OH)2D3”; in the assay with vitamin D-deficient rats [1] (setting [6]) it was “activity similar to 1,25(OH)2D3”. In addition, the EC50 in assay [2] was found to be 0.08 nM; in the assay with HL-60 cells (Homo sapiens, 96 h), 0.9 nM. Besides, in assay [2] (setting [7]), the “transcriptional activity in bone cells relative to 1α,25-dihydroxyvitamin D3” value is reported as “about 3 times”. Also, in assay [3], the Ki is 0.1 nM. For the same compound, the “HL-60 cell differentiation activity relative to 1α,25-dihydroxyvitamin D3” value in the assay on HL-60 cells (setting [7]) is “about 3 times”. Moreover, the bone calcium mobilization entry in the assay with vitamin D-deficient rats [4] (setting [6]) is “did not result in any mobilization of bone calcium”.

For the compound `C=C1/C(=C\C=C2/CCC[C@]3(C)[C@@H]([C@H](C)CCCC(C)(C)O)CC[C@@H]23)C[C@@H](O)C[C@@H]1O` [1α,25-dihydroxyvitamin D3, reference compound], the EC50 stood at 0.2 nM in assay [2] and 2 nM with HL-60 cells. Also, the bone calcium mobilization result in the assay with vitamin D-deficient rats [4] (setting [5]) was “significant activity”. Besides, the serum calcium levels result in the assay on vitamin D-deficient rats [4] (all dosages) is “increased serum calcium levels at all dosages”.
